Experimental data taken from patent US12351561B2, “Crystalline (2S,4R)-5-(5'-chloro-2'-fluoro-[1,1'-biphenyl]-4-yl)-2-(ethoxymethyl)-4-(3-hydroxyisoxazole-5-carboxamido)-2-methylpentanoic acid and uses thereof” (THERAVANCE BIOPHARMA R&D IP, LLC, priority 2016, dated 2025).
Blank lines part the entries; values can stand above or below the molecule they belong to.

Tests used:
[1] = Assay 3.2: PK profile, oral bioavailability and renal excretion in human (SAD, 14C i.v. microtracer); format: in vivo; conditions: human, SAD clinical trial, confirmed by intravenous microtracer
Method: A Phase 1 single-ascending dose (SAD) clinical trial of Compound I′ (Form I), which converts to or dissolves to provide its soluble form Compound I in the body, was conducted in order to assess neprilysin inhibition for the treatment of a range of cardiovascular and renal diseases, including, e.g., chronic kidney disease, diabetic nephropathy, acute and chronic heart failure, heart failure with reduced ejection fraction, heart failure with preserved ejection fraction, post-myocardial infarction asymptomatic left ventricular dysfunction (post-MI asymptomatic LVD), subacute heart failure and resistant and isolated systolic hypertension. Safety and tolerability, pharmacokinetic (support for QD/BID dosing and non-renal excretion), pharmacodynamic (test for target engagement biomarkers cGMP and ANP), food effect, and absolute oral bioavailability and renal elimination using a ^14C intravenous microtracer, inter alia, were tested.
The Phase 1 study was a double-blind, randomized placebo-controlled single ascending dose study in healthy male and female volunteers randomized in a 4:1 ratio. The study enrolled 56 healthy volunteers over multiple weeks for the ascending-dose portion, which included cohorts (n=10/cohort of 8 active and 2 placebo) administered single ascending doses of 50 mg, 100 mg, 200 mg, 400 mg and 600 mg. A sixth cohort (n=6) was administered i.v. microtracer and oral doses of 10 μg and 100 mg, respectively.

NEP = target: T1, NEP (Homo sapiens, UniProt P08473); test: Assay 4.1: NEP activity in human (cGMP), multiple-ascending dose study; format: in vivo; conditions: once-daily dose, trough (0 h) up to 24 h
T1 construct: from tissue; host or cells: healthy human volunteers (in vivo)
T1 sequence (P08473 whole entry): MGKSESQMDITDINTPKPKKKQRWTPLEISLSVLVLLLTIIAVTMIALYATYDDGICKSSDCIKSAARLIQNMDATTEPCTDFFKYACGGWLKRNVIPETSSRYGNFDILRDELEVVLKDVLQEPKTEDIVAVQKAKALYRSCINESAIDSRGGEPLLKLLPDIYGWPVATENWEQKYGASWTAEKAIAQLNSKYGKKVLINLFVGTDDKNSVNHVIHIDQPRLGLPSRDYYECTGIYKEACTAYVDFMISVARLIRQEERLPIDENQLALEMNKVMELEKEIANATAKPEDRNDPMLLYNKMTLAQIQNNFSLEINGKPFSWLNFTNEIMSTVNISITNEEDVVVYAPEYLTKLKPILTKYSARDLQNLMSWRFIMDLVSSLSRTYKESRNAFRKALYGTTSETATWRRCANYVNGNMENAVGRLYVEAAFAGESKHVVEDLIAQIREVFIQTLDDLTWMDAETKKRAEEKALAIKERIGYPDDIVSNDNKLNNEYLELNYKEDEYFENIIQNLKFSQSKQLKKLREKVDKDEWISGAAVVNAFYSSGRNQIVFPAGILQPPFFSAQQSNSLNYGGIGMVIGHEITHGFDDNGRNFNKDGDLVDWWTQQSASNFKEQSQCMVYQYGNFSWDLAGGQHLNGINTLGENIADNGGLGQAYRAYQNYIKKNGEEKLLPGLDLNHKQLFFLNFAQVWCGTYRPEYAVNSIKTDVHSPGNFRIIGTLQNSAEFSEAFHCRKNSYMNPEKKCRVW
Method: The Phase 1 study was a double-blind, randomized placebo-controlled multiple ascending dose study in healthy male and female volunteers randomized in a 4:1 ratio. The study enrolled 50 healthy adult (19-55 years old) and elderly (65-80 years old) volunteers over multiple weeks for the ascending-dose portion, which included cohorts (n=10/cohort of 8 active and 2 placebo) administered (1) ascending doses of 50 mg, 100 mg, and 200 mg, (2) a dose of 10 mg studied in parallel with 200 mg for PK/PK, and (3) a dose of 100 mg for one elderly cohort. […] Additionally, renal elimination of Compound I was neglible after multiple dosing, e.g., <1% was observed on Day 1 and Day 14 for all subjects.
Part of the MAD clinical studies was to determine the mechanism/duration of action of Compound I after dosing in humans.

[2] = Stability study of crystalline form (25° C./60% RH and accelerated 40° C./75% RH); format: physicochemical
Method: One challenge in pharmaceutical drug development relates to discovering a stable, crystalline form of a drug having a reasonably high melting point. One challenge of the present invention was that small crystals of the free acid of Compound I were difficult to obtain with the favorable physical properties mentioned above. Once achieved, the small crystals melted around 216° C. and an accelerated stability study of Compound I′ was conducted at the temperatures and % relative humidity (RH) reported below.

[3] = Dynamic moisture sorption (DMS) assessment; format: physicochemical
Method: In one embodiment, crystalline form I′ is characterized by the DMS isotherm in FIG. 4. […] The total moisture gain observed is less than 0.02% by weight when exposed to 5-90% relative humidity. No significant hysteresis is found between two consecutive sorption-desorption cycles. […] The crystalline form I′ remains non-hygroscopic and therefore may be characterized as anhydrous, non-hygroscopic or both.
DMS measurements were performed using a VTI atmospheric microbalance, SGA-100 system (VTI Corp., Hialeah, FL 33016). A weighed sample was used and the humidity was lowest possible value (close to 0% relative humidity) at the start of the analysis. The DMS analysis consisted of a scan rate of 5% relative humidity/step over the full humidity range of 5-90%. The DMS run was performed isothermally at 25° C.

human neprilysin (NEP) = human neprilysin (NEP) (Homo sapiens, UniProt P08473); test: in vitro human neprilysin inhibitor activity (pKi); format: biochemical
Sequence of human neprilysin (NEP) (P08473 whole entry): as above
From the text: One measure of the ability of a compound to inhibit NEP activity is the inhibition constant (pKi). The pKi value is the negative logarithm to base 10 of the dissociation constant (Ki), which is typically reported in molar units. The compound of the invention has a pKi at NEP≥9.0.
The in vitro-to-in vivo extrapolation of drug behavior in a subject continues to improve (see, e.g., Chiba et al., AAPS J., 2009 June; 11 (2): 262-276). In the present invention, in vitro human neprilysin inhibitor activity was assessed in order to determine neprilysin inhibitory activity of Compound I and crystalline form I′. A threshold of pKi>9.0 was met. However, additional in vivo experiments were further performed in order to more accurately predict the behavior of Compound I and crystalline form I′ in a subject.

[4] = healthy subjects; cited from earlier work

renal elimination (of total administered dose) [1]: less than 1%
time for which the crystalline form remains stable ([2]; 25° C., 60% RH): at least 18 months
Assay ([2]; 25° C., 60% RH, 0 months): 98.6 % (w/w)
Water Content ([2]; 25° C., 60% RH, 0 months, LOQ = 0.2%): <LOQ
Assay ([2]; 25° C., 60% RH, 3 months): 98.5 % (w/w)
Assay ([2]; 25° C., 60% RH, 6 months): 99.2 % (w/w)
Water Content ([2]; 25° C., 60% RH, 6 months, LOQ = 0.19%): <LOQ
Assay ([2]; 25° C., 60% RH, 9 months): 99.0 % (w/w)
Assay ([2]; 25° C., 60% RH, 12 months): 99.2 % (w/w)
Water Content ([2]; 25° C., 60% RH, 12 months, LOQ = 0.19%): <LOQ
Assay ([2]; 25° C., 60% RH, 18 months): 99.1 % (w/w)
Assay ([2]; 40° C., 75% RH (accelerated), 0 months): 98.6 % (w/w)
Water Content ([2]; 40° C., 75% RH (accelerated), 0 months, LOQ = 0.2%): <LOQ
Assay ([2]; 40° C., 75% RH (accelerated), 1 month): 98.5 % (w/w)
Assay ([2]; 40° C., 75% RH (accelerated), 3 months): 98.6 % (w/w)
Water Content ([2]; 40° C., 75% RH (accelerated), 3 months, LOQ = 0.22%): <LOQ
Assay ([2]; 40° C., 75% RH (accelerated), 6 months): 99.0 % (w/w)
Water Content ([2]; 40° C., 75% RH (accelerated), 6 months, LOQ = 0.19%): <LOQ
time for which the crystalline form remains stable ([2]; measured by accelerated conditions of 40° C., 75% RH (6 months taken as equivalent to 2 years at 25° C., 60% RH)): at least 2 years
hygroscopicity (DMS isotherm) ([3]; 5-90% relative humidity, two sorption-desorption cycles): non-hygroscopic solid
total moisture gain ([3]; exposed to 5-90% relative humidity, 25° C.): less than 0.02 % by weight
Ki (human neprilysin (NEP)): ≤ 1 nM
SMILES: CCOC[C@](C)(C[C@@H](Cc1ccc(-c2cc(Cl)ccc2F)cc1)NC(=O)c1cc(O)no1)C(=O)O [Compound I′, (2S,4R)-5-(5′-chloro-2′-fluoro-[1,1′-biphenyl]-4-yl)-2-(ethoxymethyl)-4-(3-hydroxyisoxazole-5-carboxamido)-2-methylpentanoic acid]
target engagement (plasma cGMP) on Day 14 (NEP): target engagement of all doses at trough (0 h) as well as all doses measured up to 24 h
water detected ([2]; at 12-months): no quantifiable amount of water is detected

SMILES: CCOC(=O)[C@H](C)C[C@@H](Cc1ccc(-c2ccccc2)cc1)NC(=O)CCC(=O)O [sacubitril]
renal elimination [4]: 60%
